# Source: ChEMBL document CHEMBL5653631, “A Potent and Selective ULK1 Inhibitor Suppresses Autophagy and Sensitizes Cancer Cells to Nutrient Stress” (iScience, 2018)
# Experiments:
# [1] = target: cAMP-dependent protein kinase catalytic subunit beta (Homo sapiens) (UniProt P22694); experiment: Inhibition of human recombinant PKACbeta at 500 nM in presence of ATP by radiometric assay relative to control
# [2] = target: Casein kinase I isoform gamma-1 (Homo sapiens) (UniProt Q9HCP0); experiment: Inhibition of human recombinant CK1g1 at 500 nM related to control ULK1
# Chain of Casein kinase I isoform gamma-1 (Homo sapiens) (Q9HCP0 whole entry, looked up, canonical isoform): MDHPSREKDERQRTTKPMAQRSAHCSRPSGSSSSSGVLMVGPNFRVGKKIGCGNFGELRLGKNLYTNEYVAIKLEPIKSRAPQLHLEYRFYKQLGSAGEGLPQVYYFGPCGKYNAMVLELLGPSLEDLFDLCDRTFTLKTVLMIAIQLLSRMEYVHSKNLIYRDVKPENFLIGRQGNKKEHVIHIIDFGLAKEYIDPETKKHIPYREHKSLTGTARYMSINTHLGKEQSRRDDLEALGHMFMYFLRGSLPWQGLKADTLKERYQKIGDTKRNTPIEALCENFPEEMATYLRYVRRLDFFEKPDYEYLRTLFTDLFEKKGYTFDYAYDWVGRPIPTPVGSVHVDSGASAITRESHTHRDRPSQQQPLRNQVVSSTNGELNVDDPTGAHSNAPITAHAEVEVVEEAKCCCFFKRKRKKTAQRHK
# [3] = target: Hepatocyte growth factor receptor (Homo sapiens) (UniProt P08581); experiment: Inhibition of human recombinant MET at 500 nM in presence of ATP by radiometric assay relative to control
# Chain of Hepatocyte growth factor receptor (Homo sapiens) (P08581 whole entry, looked up): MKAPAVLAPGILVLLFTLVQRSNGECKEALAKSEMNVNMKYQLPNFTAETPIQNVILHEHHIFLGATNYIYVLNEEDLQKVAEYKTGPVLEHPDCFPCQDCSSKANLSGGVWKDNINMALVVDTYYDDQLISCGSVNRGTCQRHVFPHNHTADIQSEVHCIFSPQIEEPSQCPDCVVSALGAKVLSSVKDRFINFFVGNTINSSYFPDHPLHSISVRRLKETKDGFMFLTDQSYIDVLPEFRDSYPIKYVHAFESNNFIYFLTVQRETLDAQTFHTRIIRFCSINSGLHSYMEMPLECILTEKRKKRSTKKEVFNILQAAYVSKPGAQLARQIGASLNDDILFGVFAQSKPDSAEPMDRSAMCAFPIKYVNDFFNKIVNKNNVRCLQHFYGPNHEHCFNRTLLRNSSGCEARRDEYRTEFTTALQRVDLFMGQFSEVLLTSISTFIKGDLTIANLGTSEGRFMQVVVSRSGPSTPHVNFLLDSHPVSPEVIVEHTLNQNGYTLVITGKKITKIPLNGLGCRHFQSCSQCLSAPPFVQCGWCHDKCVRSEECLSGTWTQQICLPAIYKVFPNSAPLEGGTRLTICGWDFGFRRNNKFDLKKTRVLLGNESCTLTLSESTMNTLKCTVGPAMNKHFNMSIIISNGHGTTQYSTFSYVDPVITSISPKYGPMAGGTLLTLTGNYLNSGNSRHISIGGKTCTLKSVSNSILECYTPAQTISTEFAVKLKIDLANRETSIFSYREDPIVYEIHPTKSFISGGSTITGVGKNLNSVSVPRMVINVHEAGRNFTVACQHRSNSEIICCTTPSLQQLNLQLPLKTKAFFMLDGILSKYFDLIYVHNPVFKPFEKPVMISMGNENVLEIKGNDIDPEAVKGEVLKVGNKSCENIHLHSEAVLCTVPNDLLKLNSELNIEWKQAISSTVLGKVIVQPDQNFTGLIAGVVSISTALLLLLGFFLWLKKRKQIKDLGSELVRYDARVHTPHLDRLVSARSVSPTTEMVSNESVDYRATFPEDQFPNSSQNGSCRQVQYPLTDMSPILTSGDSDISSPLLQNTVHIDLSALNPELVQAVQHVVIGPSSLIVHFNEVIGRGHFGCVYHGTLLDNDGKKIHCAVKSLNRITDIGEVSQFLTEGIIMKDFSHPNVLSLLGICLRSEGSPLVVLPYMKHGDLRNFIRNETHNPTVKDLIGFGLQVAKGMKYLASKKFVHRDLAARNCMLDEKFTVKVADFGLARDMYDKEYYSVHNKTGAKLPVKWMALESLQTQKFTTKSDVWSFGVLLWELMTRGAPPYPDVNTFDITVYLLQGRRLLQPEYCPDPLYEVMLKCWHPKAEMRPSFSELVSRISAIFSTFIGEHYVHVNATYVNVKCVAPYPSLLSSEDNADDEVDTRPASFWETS
# [4] = target: Serine/threonine-protein kinase PAK 1 (Homo sapiens) (UniProt Q13153); experiment: Inhibition of human recombinant PAK1 at 500 nM in presence of ATP by radiometric assay relative to control
# Chain of Serine/threonine-protein kinase PAK 1 (Homo sapiens) (Q13153 whole entry, looked up): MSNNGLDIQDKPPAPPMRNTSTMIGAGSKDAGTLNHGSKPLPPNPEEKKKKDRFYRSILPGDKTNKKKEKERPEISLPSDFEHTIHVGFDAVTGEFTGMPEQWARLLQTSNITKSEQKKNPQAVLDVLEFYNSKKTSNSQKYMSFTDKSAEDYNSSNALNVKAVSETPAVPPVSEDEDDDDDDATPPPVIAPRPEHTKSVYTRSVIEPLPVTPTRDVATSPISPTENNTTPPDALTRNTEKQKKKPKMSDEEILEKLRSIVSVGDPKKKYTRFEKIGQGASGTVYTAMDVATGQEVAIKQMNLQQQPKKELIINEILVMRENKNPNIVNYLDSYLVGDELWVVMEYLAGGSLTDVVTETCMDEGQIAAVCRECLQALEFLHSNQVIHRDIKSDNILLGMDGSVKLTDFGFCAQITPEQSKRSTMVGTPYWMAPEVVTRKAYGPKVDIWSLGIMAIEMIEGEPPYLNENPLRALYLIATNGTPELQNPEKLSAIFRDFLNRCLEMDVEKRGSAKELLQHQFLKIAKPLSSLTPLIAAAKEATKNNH
# [5] = target: T1, Myosin-IIIb (Homo sapiens) (UniProt Q8WXR4); experiment: Inhibition of human recombinant MYO3B at 500 nM related to control ULK1
# T1 sequence (whole entry): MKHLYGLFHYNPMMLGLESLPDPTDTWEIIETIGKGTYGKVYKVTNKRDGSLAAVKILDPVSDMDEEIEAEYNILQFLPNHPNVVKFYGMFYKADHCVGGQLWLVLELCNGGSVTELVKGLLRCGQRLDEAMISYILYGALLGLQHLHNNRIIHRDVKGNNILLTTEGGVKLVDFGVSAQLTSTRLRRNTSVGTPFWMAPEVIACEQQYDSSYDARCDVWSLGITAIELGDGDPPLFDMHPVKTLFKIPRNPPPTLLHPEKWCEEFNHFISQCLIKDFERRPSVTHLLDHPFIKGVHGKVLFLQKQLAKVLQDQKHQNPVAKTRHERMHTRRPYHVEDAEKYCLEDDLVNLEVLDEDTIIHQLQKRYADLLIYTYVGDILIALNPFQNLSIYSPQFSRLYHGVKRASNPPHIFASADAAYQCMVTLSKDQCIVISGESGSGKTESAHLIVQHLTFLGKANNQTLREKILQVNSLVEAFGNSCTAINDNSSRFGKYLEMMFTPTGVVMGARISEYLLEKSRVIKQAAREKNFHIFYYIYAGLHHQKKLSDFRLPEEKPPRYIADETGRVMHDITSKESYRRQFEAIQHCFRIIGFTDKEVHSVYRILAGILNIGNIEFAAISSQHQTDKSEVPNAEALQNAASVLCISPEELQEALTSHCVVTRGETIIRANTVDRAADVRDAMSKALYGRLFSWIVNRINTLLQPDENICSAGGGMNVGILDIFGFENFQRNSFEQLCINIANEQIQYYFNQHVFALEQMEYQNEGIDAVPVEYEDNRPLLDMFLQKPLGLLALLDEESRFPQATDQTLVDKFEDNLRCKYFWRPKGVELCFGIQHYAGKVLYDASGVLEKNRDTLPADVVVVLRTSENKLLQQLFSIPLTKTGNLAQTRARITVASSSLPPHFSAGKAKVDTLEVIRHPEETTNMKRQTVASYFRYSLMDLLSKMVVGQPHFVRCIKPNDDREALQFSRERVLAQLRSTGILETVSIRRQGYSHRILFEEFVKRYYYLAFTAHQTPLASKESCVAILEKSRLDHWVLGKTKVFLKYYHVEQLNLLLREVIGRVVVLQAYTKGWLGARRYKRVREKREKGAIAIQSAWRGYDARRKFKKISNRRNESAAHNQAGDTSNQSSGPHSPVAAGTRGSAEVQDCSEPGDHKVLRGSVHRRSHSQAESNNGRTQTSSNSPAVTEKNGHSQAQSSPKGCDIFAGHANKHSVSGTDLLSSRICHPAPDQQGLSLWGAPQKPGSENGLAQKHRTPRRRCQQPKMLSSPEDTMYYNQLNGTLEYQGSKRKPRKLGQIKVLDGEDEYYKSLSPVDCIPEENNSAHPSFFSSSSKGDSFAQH
# [6] = target: Protein kinase C beta type (Homo sapiens) (UniProt P05771); experiment: Inhibition of human recombinant PKCb at 15 nM related to control ULK1
# Chain of Protein kinase C beta type (Homo sapiens) (P05771 2-671 limits assumed): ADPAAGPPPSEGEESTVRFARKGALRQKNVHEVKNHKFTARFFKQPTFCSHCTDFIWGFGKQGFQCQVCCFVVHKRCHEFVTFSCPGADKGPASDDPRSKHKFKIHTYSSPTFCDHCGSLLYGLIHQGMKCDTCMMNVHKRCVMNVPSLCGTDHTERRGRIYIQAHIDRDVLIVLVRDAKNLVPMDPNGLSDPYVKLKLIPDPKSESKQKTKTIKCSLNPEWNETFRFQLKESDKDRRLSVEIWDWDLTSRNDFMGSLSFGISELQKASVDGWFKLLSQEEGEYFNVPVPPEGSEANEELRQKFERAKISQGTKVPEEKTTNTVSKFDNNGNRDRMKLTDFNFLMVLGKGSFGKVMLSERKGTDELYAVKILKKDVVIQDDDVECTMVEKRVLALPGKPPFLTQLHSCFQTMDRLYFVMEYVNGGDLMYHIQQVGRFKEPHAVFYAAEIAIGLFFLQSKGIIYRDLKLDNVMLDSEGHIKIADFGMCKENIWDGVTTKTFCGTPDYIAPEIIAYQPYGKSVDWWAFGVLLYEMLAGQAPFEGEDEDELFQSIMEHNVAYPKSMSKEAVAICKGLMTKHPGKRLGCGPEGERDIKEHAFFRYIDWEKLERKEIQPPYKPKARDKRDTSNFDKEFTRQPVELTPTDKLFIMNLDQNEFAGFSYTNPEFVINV
# [7] = target: Protein kinase C eta type (Homo sapiens) (UniProt P24723); experiment: Inhibition of human recombinant PKCH at 15 nM related to control ULK1
# Chain of Protein kinase C eta type (Homo sapiens) (P24723 whole entry): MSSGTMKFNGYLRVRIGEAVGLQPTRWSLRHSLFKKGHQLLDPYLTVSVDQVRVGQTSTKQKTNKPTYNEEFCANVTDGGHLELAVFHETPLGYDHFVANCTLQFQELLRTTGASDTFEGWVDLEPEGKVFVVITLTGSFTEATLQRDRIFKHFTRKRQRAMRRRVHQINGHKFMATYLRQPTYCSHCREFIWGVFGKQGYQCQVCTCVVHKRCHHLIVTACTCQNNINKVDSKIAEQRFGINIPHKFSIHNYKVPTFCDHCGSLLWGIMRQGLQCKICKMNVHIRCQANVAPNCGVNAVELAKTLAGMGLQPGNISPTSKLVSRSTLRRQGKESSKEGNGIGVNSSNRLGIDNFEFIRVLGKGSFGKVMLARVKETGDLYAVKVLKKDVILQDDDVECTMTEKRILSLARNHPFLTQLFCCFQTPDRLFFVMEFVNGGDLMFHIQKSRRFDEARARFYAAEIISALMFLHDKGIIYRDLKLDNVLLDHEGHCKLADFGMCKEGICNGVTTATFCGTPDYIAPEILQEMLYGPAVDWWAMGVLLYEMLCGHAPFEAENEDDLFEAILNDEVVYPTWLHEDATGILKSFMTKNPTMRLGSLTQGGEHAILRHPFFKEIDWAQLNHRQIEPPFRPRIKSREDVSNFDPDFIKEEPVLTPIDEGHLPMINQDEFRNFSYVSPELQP
# [8] = target: T2, Myotonin-protein kinase (Homo sapiens) (UniProt Q09013); experiment: Inhibition of human recombinant DMPK1 at 15 nM in presence of ATP by radiometric assay relative to control
# T2 sequence (whole entry): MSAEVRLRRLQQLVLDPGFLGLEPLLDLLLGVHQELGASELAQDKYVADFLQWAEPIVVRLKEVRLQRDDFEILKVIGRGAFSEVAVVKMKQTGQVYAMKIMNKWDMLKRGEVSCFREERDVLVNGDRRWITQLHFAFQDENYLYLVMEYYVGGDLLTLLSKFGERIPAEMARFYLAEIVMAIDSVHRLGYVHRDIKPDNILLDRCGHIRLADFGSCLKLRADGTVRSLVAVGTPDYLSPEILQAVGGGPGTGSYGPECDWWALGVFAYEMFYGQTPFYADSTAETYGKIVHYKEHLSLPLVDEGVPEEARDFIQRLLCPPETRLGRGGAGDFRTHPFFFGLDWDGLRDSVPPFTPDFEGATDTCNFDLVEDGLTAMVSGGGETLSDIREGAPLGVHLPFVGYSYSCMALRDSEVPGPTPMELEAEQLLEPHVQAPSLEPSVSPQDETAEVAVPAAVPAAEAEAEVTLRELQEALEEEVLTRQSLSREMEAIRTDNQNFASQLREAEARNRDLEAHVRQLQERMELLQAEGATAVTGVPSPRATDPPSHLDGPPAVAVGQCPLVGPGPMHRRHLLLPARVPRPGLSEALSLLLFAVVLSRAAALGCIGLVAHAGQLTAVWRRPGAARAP
# [9] = target: Dual specificity tyrosine-phosphorylation-regulated kinase 1B (Homo sapiens) (UniProt Q9Y463); experiment: Inhibition of human recombinant DYRK1B at 40 nM related to control ULK1
# Chain of Dual specificity tyrosine-phosphorylation-regulated kinase 1B (Homo sapiens) (Q9Y463 whole entry, looked up): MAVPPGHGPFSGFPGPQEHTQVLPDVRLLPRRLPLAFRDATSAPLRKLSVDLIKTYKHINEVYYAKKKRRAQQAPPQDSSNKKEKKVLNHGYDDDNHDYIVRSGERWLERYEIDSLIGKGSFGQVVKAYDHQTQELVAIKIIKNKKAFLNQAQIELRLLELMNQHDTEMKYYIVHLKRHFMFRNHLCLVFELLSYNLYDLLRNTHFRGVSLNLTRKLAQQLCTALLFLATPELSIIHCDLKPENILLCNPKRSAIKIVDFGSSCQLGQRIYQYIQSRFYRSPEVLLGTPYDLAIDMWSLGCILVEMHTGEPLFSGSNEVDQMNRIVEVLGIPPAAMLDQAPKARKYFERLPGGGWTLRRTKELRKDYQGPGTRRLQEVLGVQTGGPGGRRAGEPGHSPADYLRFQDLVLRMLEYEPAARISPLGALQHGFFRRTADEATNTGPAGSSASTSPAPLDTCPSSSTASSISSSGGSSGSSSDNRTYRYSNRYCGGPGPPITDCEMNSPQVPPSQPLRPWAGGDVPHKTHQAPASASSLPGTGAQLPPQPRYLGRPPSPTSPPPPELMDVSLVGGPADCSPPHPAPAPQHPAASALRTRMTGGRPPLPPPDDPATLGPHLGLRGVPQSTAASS
# [10] = target: T3, Serine/threonine-protein kinase 17B (Homo sapiens) (UniProt O94768); experiment: Inhibition of human recombinant DRAK2 at 40 nM in presence of ATP by radiometric assay relative to control
# T3 sequence (whole entry): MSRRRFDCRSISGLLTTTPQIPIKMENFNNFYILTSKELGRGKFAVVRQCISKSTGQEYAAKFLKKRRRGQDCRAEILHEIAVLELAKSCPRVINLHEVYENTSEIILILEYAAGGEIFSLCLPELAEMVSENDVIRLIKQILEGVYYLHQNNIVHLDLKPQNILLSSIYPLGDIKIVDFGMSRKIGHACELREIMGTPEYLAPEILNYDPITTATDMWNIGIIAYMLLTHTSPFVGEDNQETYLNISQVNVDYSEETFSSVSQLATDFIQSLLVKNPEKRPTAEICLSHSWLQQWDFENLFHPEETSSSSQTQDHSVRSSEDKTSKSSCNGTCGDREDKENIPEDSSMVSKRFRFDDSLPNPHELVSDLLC
# [11] = target: T1, Myosin-IIIb (Homo sapiens); experiment: Inhibition of human recombinant MYO3B at 40 nM related to control ULK1
compound,measurement,setting,value
CNC(=O)c1ccccc1Oc1nc(Nc2cc(OC)c(OC)c(OC)c2)ncc1Br,inhibition,[1],0%
same,fold change (FC),[2],0
same,inhibition,[3],32%
same,inhibition,[4],20%
same,fold change (FC),[5],0.15
CC(C)[C@H](NC(=O)c1cc(-c2cnn3cc(-c4ccc(OCCN5CCCCC5)cc4)cnc23)cs1)C(F)(F)F,fold change (FC),[6],0
same,fold change (FC),[7],0
same,inhibition,[8],0%
O=C(N[C@@H](C1CC1)C(F)(F)F)c1cc(-c2cnn3cc(-c4ccc(F)cc4)cnc23)cs1,fold change (FC),[9],0.42
same,inhibition,[10],39%
same,fold change (FC),[11],0
